Assay results: US20070015832A1, “Methods of treating overactive bladder and urinary incontinence” (Myriad Genetics, Incorporated, priority 2005, published 2007)
Read-outs that look alike come from different tables or passages of the source.

Conditions: oral tablets, placebo group 6 patients
Experimental: Subjects will be stratified at randomization for use/non-use of AChE inhibitors. A target of 201 subjects (67 subjects per arm) in 3 treatment groups are enrolled for 12 Months with optional follow-on treatment after Month 12 (2 treatment groups).
The intraday dosing interval is approximately 12 hours. Study drug is instructed to be taken at approximately the same time each day during the participation in the 12-month study. Study medication may be taken with or without food.

With `C[C@@H](C(=O)O)c1ccc(-c2ccccc2)c(F)c1` [(R)-2-(2-fluoro-4-biphenyl)propionic acid] the “patients exhibiting urinary incontinence” value (400 mg BID group (800 mg/day), p value vs. placebo = 0.028) was 0 patients and the “patients exhibiting urinary incontinence” value (800 mg BID group (1600 mg/day), p value vs. placebo = 0.063) was 1 patient.
